Results published in US20240002436A1, “RESPIRATORY TREATMENTS” (Hofseth Biocare ASA, priority 2020, published 2024).
Where a SMILES comes first, the peptide text is derived from it. [ ]: non-standard residue; d: D form. The star is where a group is joined. cisHyp = O=C(O)[C@@H]1C[C@H](O)CN1; NMeL = CN[C@@H](CC(C)C)C(=O)O; NMeV = CN[C@H](C(=O)O)C(C)C; Octanoyl = CCCCCCCC(=O)*

B1: ApoA-IV: positive control in the eosinophil apoptosis and CD11b assays, used at 3 μg/mL (protein, UniProt P06727 21-396, looked up)
Apolipoprotein A-IV: EVSADQVATVMWDYFSQLSNNAKEAVEHLQKSELTQQLNALFQDKLGEVNTYAGDLQKKLVPFATELHERLAKDSEKLKEEIGKELEELRARLLPHANEVSQKIGDNLRELQQRLEPYADQLRTQVSTQAEQLRRQLTPYAQRMERVLRENADSLQASLRPHADELKAKIDQNVEELKGRLTPYADEFKVKIDQTVEELRRSLAPYAQDTQEKLNHQLEGLTFQMKKNAEELKARISASAEELRQRLAPLAEDVRGNLRGNTEGLQKSLAELGGHLDQQVEEFRRRVEPYGENFNKALVQQMEQLRQKLGPHAGDVEGHLSFLEKDLRDKVNSFFSTFKEKESQDKTLSLPELEQQQEQQQEQQQEQVQMLAPLES

What was measured:
CD11b on PMNL surface = test: CD11b change on PMNL surface stimulated by CCL11 (flow cytometry); assay type: cell-based; conditions: 30 min pretreatment, 2.5 nm CCL11 30 min at 37° C., CD16 negative cells; for activity at 1 µg/mL: Homo sapiens, PMNL, 0.5 h, 1 μg/mL test compound, assay SD +/-2%, read-out: CD11b change (100% as baseline)
Experimental: CD11b Change (100% as Baseline) on PMNL Surface Stimulated by 2.5 nm CCL11
(PMNL) cells were pretreated with 3 μg/mL ApoA-IV (positive control), 1 μg/mL test compounds, and formulation vehicle (negative control) for 30 minutes and incubated with serial dilutions of CCL 11 for 30 minutes at 37° C. Samples were stained with anti-CD16-PE-Cy5 and anti-CD11b-PE (ICRF44) antibodies. Eosinophils were identified as CD16 negative cells. CD11b upregulation was analyzed by flow cytometry and reported above. (Standard deviation in the assay is +/−2%). See results in Table 2 below.

[1] = system: Allergic Human Purified Peripheral Blood Eosinophils; test: Percent eosinophil apoptosis (Annexin V-FITC, flow cytometry) in allergic human purified peripheral blood eosinophils; assay type: cell-based; conditions: IL-5 (50 pM), 18 hr incubation; for viability at 10 µg/mL / Percent apoptotic eosinophils (annexin V-positive) at 10 µg/mL: Homo sapiens, Eosinophil, 10 μg/mL test compound, assay SD +/-2.3%; for viability at 10 µg/mL: read-out: Percent live EO cells; for Percent apoptotic eosinophils (annexin V-positive) at 10 µg/mL: read-out: Percent of apoptotic EO cells
Experimental: Percent Eosinophil Apoptosis in Allergic Human Purified Peripheral Blood Eosinophils
Aliquots were removed after 18 hr incubation, washed twice in PBS, and resuspended in binding buffer. The eosinophil cells were stained using the Annexin V-FITC Apoptosis Detection Kit I, (Sigma Aldrich) and immediately analyzed by flow cytometry. Each sample was acquired for 1 min, and the total number of eosinophils gated on a forward scatter/side scatter plot and the percentage of live cells (annexin Vneg) and apoptotic cells (annexin Vpos) was recorded.

[2] = 3 μg/mL ApoA-IV (positive control)

Molecule | activity at 1 µg/mL (CD11b on PMNL surface) [%] | viability at 10 µg/mL ([1]; annexin Vneg) [%] | Percent apoptotic eosinophils (annexin V-positive) at 10 µg/mL ([1]; annexin Vpos) [%] | CD11b change (100% as baseline) (CD11b on PMNL surface; [2]) [%] | Total percent live and apoptotic EO cells [1, 2] [%] | Percent live EO cells ([1]; 3 μg/mL ApoA-IV (positive control), annexin Vneg) [%] | Percent of apoptotic EO cells ([1]; 3 μg/mL ApoA-IV (positive control), annexin Vpos) [%]
CCCCC(C)CC(C)C(=O)N(C)[C@@H](CC(C)C)C(=O)N[C@H](C(=O)N(C)[C@H](C(=O)N1C[C@@H](O)C[C@H]1C(=O)N1C(=O)C=C[C@@H]1C)C(C)C)C(C)OC(C)=O (stereo partly drawn) [Compound 1b] | 128 | 41.8 | 55 | – | – | – | –
CCCCCCCC(=O)N(C)[C@@H](CC(C)C)C(=O)N[C@@H](COC(C)=O)C(=O)N(C)[C@H](C(=O)N1C[C@@H](O)C[C@H]1C(=O)OC)C(C)C [Compound 17a] (Octanoyl-[NMeL]S(Ac)[NMeV][cisHyp]-OMe) | – | 53.5 | 48.2 | – | – | – | –
CCCCC(C)CC(C)C(=O)N(C)[C@@H](CC(C)C)C(=O)N[C@H](C(=O)N(C)[C@H](C(=O)N1CCC[C@H]1C(=O)N1C(=O)C=CC1=O)C(C)C)C(C)OC(C)=O (stereo partly drawn) [Compound 12a] | 141 | 52 | 42.1 | – | – | – | –
CCCCC(C)CC(C)C(=O)N(C)[C@@H](CC(C)C)C(=O)N[C@H](C(=O)N(C)[C@H](C(=O)N1C[C@@H](O)C[C@H]1C(=O)N1C(=O)C=C[C@@H]1C)C(C)C)C(C)O (stereo partly drawn) [Compound 8a] | 122 | 31.2 | 60.1 | – | – | – | –
CCCCCCCC(=O)N(C)[C@@H](CC(C)C)C(=O)N[C@H](C(=O)N(C)[C@H](C(=O)N1C[C@@H](O)C[C@H]1C(=O)N1C(=O)C=C[C@@H]1C)C(C)C)C(C)OC(C)=O (stereo partly drawn) [Compound 5a] | 129 | 42.9 | 53.1 | – | – | – | –
CC/C=C\C/C=C\C/C=C\C/C=C\C/C=C\CCCC(=O)N(C)[C@@H](Cc1ccccc1)C(=O)N[C@H](C(=O)N(C)[C@H](C(=O)N1C[C@@H](O)C[C@H]1C(=O)N1C(=O)C=CC1=O)C(C)C)C(C)OC(C)=O (stereo partly drawn) [Compound 23a] | – | 31.4 | 65.6 | – | – | – | –
CCCCCCCC(=O)N(C)[C@@H](Cc1ccccc1)C(=O)N[C@H](C(=O)N(C)[C@H](C(=O)N1C[C@@H](O)C[C@H]1C(=O)N1C(=O)C=CC1=O)C(C)C)C(C)OC(C)=O (stereo partly drawn) [Compound 18a] | – | 41 | 55.5 | – | – | – | –
CCCCC(C)CC(C)C(=O)N(C)[C@@H](CC(C)C)C(=O)N[C@@H](COC(C)=O)C(=O)N(C)[C@H](C(=O)N1C[C@@H](O)C[C@H]1C(=O)N1C(=O)C=C[C@@H]1C)C(C)C (stereo partly drawn) [Compound 9a] | 127 | 39.6 | 56.4 | – | – | – | –
CC/C=C\C/C=C\C/C=C\C/C=C\C/C=C\CCCC(=O)N(C)[C@@H](CC(C)C)C(=O)N[C@H](C(=O)N(C)[C@H](C(=O)N1C[C@@H](O)C[C@H]1C(=O)N1C(=O)C=C[C@@H]1C)C(C)C)C(C)O (stereo partly drawn) [Compound 14a] | – | 26.6 | 67.1 | – | – | – | –
CC/C=C\C/C=C\C/C=C\C/C=C\C/C=C\CCCCCC(=O)N(C)[C@@H](Cc1ccccc1)C(=O)N[C@H](C(=O)N(C)[C@H](C(=O)N1CCC[C@H]1C(=O)N1C(=O)C=CC1=O)C(C)C)C(C)O (stereo partly drawn) [Compound 26a] | – | 30 | 67.3 | – | – | – | –
CCCCC(C)CC(C)C(=O)N(C)[C@@H](CC(C)C)C(=O)N[C@@H](CS)C(=O)N(C)[C@H](C(=O)N1CCC[C@H]1C(=O)N1C(=O)C=C[C@@H]1C)C(C)C (stereo partly drawn) [Compound 11a] | 135 | 49.7 | 44.4 | – | – | – | –
CC/C=C\C/C=C\C/C=C\C/C=C\C/C=C\CCCC(=O)N(C)[C@@H](CC(C)C)C(=O)N[C@H](C(=O)N(C)[C@H](C(=O)N1C[C@@H](O)C[C@H]1C(=O)N1C(=O)C=C[C@@H]1C)C(C)C)C(C)OC(C)=O (stereo partly drawn) [Compound 27a] | – | 39.1 | 56.5 | – | – | – | –
CC(C)C[C@@H](C(=O)N[C@H](C(=O)N(C)[C@H](C(=O)N1C[C@@H](O)C[C@H]1C(=O)N1C(=O)C=C[C@@H]1C)C(C)C)C(C)O)N(C)C(=O)C1CCCCC1 (stereo partly drawn) [Compound 13a] | – | 51.3 | 44 | – | – | – | –
CC/C=C\C/C=C\C/C=C\C/C=C\C/C=C\CCCC(=O)N(C)[C@@H](Cc1ccccc1)C(=O)N[C@H](C(=O)N(C)[C@H](C(=O)N1CCC[C@H]1C(=O)N1C(=O)C=CC1=O)C(C)C)C(C)OC(C)=O (stereo partly drawn) [Compound 24a] | – | 33.8 | 64.9 | – | – | – | –
CCCCC(C)CC(C)C(=O)N(C)CC(=O)N[C@H](C(=O)N(C)CC(=O)N1C[C@@H](O)C[C@H]1C(=O)N1C(=O)C=C[C@@H]1C)C(C)OC(C)=O (stereo partly drawn) [Compound 7a] | 149 | 59.4 | 39.9 | – | – | – | –
CC/C=C\C/C=C\C/C=C\C/C=C\C/C=C\CCCC(=O)N(C)[C@@H](CC(C)C)C(=O)N[C@H](C(=O)N(C)[C@H](C(=O)N1C[C@@H](O)C[C@H]1C(=O)N1C(=O)C=CC1=O)C(C)C)C(C)O (stereo partly drawn) [Compound 22a] | – | 28.1 | 68.7 | – | – | – | –
CC/C=C\C/C=C\C/C=C\C/C=C\C/C=C\CCCC(=O)N(C)[C@@H](Cc1ccccc1)C(=O)N[C@H](C(=O)N(C)[C@H](C(=O)N1CCC[C@H]1C(=O)N1C(=O)C=CC1=O)C(C)C)C(C)O (stereo partly drawn) [Compound 25a] | – | 22.3 | 73.1 | – | – | – | –
CCCCC(C)CC(C)C(=O)N[C@@H](CC(C)C)C(=O)N[C@H](C(=O)N[C@H](C(=O)N1C[C@@H](O)C[C@H]1C(=O)N1C(=O)C=C[C@@H]1C)C(C)C)C(C)OC(C)=O (stereo partly drawn) [Compound 6a] | 141 | 54.5 | 42.8 | – | – | – | –
CCCCCCCC(=O)N(C)[C@@H](CC(C)C)C(=O)N[C@H](C(=O)N(C)[C@@H](CCSC)C(=O)N1C[C@@H](O)C[C@H]1C(=O)N1C(=O)C=CC1=O)C(C)OC(C)=O (stereo partly drawn) [Compound 19a] | – | 52.7 | 41.8 | – | – | – | –
CCCCCCCC(=O)N(C)[C@H](C(=O)N[C@H](C(=O)N(C)[C@@H](Cc1c[nH]c2ccccc12)C(=O)N1C[C@@H](O)C[C@H]1C(=O)N1C(=O)C=CC1=O)C(C)OC(C)=O)C(C)CC (stereo partly drawn) [Compound 20a] | – | 59.3 | 39.4 | – | – | – | –
CC/C=C\C/C=C\C/C=C\C/C=C\C/C=C\CCCC(=O)N(C)[C@@H](CC(C)C)C(=O)N[C@H](C(=O)N(C)[C@H](C(=O)N1C[C@@H](O)C[C@H]1C(=O)N1C(=O)C=CC1=O)C(C)C)C(C)OC(C)=O (stereo partly drawn) [Compound 21a] | – | 38.2 | 58 | – | – | – | –
CCCC[C@@H](C)C[C@@H](C)C(=O)N(C)[C@@H](CC(C)C)C(=O)N[C@H](C(=O)N(C)[C@H](C(=O)N1C[C@@H](O)C[C@H]1C(=O)N1C(=O)C=C[C@@H]1C)C(C)C)C(C)OC(C)=O (stereo partly drawn) [Compound 1a] | 129 | 42.5 | 53.2 | – | – | – | –
CCCC[C@@H](C)C[C@@H](C)C(=O)N(C)[C@@H](CC(C)C)C(=O)N[C@H](C(=O)N(C)[C@H](C(=O)N1CCC[C@H]1C(=O)N1C(=O)C=C[C@@H]1C)C(C)C)C(C)OC(C)=O (stereo partly drawn) [Compound 3a] | 139 | 51.6 | 43.7 | – | – | – | –
B1 | – | – | – | 121 | 92.4 | 29.3 | 63.1
